These results are taken from US11827628B2, “Compositions and methods for inhibition of the JAK pathway” (Rigel Pharmaceuticals, Inc., priority 2005, dated 2023).

Broadly, the IC50 is the concentration that gives 50% inhibition.

In assay [1] the test system is IL-4 stimulated expression of CD23 in human Ramos B cells (JAK-1 and JAK-3). Kind of assay: Assay for Ramos B-Cell Line Stimulated with IL-4 (CD23 upregulation, FACS). It is filed as cell-based. To be noted: Ramos B-cell line stimulated with IL-4; CD23 expression by FACS; read-out: IC50, Example 41. The gist of the method:
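Read-out is surface CD23 by FACS after anti-CD23-PE staining, giving IC50. Before this, cells were stimulated 20-24 h with 50 units/mL (final) human IL-4, following 1 h compound or vehicle pre-treatment at 37 °C; log-phase Ramos B cells, 5×10^4 per well in 5% serum RPMI.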
A general note: A flow cytometer gives signals particle by particle.

Assay [2] has as its system up-regulation of ICAM-1 (CD54) by IFNγ in U937 human monocytic cells. The assay can be described thus: U937 IFNγ ICAM1 FACS Assay. The class given is cell-based. To be noted: U937 cells stimulated with IFNγ; ICAM-1 expression by FACS; read-out: IC50, Example 44. The gist of the method:
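Readout was the geometric-mean APC anti-ICAM-1 signal by FACS on live U937 monocytic cells, with % live cells also recorded. Cells were exposed to compounds (8 points, 3-fold dilutions, duplicates) for 30 min at 37 °C before 18–24 h of IFNγ stimulation. EC50 values were computed from the dose curve.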

In the case of “5-Fluoro-N4-[4-(3-methyl-1,2,4-oxadiazol-3-yl)methyleneoxyphenyl]-N2-[(3-N-propanamido)sulfonylphenyl)]-2,4-pyrimidinediamine [Compound I-262]”, the IC50 was 78.3 nM in assay [1] and 1040 nM in assay [2]. In the same order, the values of `Cc1ccc(Nc2ncc(F)c(Nc3cccc(OC4CCCN(C)C4)c3)n2)cc1S(N)(=O)=O` (racemic) [II-1, Racemic N2-(3-aminosulfonyl-4-methylphenyl)-5-fluoro-N4-{3-[(1-methylpiperidin-3-yl)oxy]phenyl}-2,4-pyrimidinediamine] are 182 nM and 8330 nM. The matching figures for `Cc1ccc(Nc2ncc(F)c(Nc3ccc(OC4CCCN(C)C4)c(Cl)c3)n2)cc1S(N)(=O)=O` (racemic) [II-3, Racemic N2-(3-aminosulfonyl-4-methylphenyl)-N4-{3-chloro-4-[(1-methylpiperidin-3-yl)oxy]phenyl}-5-fluoro-2,4-pyrimidinediamine]: 84 nM and 6500 nM.

Regarding `Cc1ccc(Nc2ncc(F)c(Nc3ccc(OC4CCCN(C)C4)cc3)n2)cc1S(N)(=O)=O` (racemic) [II-4, Racemic N2-(3-aminosulfonyl-4-methylphenyl)-5-fluoro-N4-{4-[(1-methylpiperidin-3-yl)oxy]phenyl}-2,4-pyrimidinediamine], the IC50 in assay [1] was found to be 316 nM; in assay [2], 3510 nM. For the molecule `N#CCOc1ccc(Nc2nc(Nc3cccc(S(N)(=O)=O)c3)ncc2F)cc1` [Compound I-17, N2-(3-Aminosulfonyl)phenyl-N4-(4-cyanomethoxy)phenyl-5-fluoro-2,4-pyrimidinediamine], the IC50 in assay [1] was determined as 48.7 nM; in assay [2], 365 nM.

For `CN1CCN(S(=O)(=O)c2cccc(Nc3ncc(F)c(Nc4ccc(OCC#N)cc4)n3)c2)CC1` [Compound I-19, N4-(4-Cyanomethoxy)phenyl-5-fluoro-N2-[3-(4-methylpiperazin-1-yl)sulfonyl]phenyl-2,4-pyrimidinediamine], the values for the IC50 in assay [1] and in assay [2] were 509 nM and 10100 nM, respectively. In the same order, the values of `Cc1ccc(Nc2ncc(F)c(Nc3ccc(OCC#N)cc3)n2)cc1S(N)(=O)=O` [Compound I-20, N2-(3-Aminosulfonyl-4-methyl)phenyl-N4-(4-cyanomethoxy)phenyl-5-fluoro-2,4-pyrimidinediamine] are 36.7 nM and 339 nM. As for `N#CCOc1ccc(Nc2nc(Nc3ccc(Cl)c(S(N)(=O)=O)c3)ncc2F)cc1` [Compound I-21, N2-(3-Aminosulfonyl-4-chlorophenyl)-N4-(4-cyanomethoxy)phenyl-5-fluoro-2,4-pyrimidinediamine], the IC50 in assay [1] came to 93 nM; in assay [2] it was 822 nM. For `Cc1cc(Nc2nc(Nc3ccc(S(N)(=O)=O)cc3)ncc2F)ccc1OCC#N` [Compound I-22, N2-(4-Aminosulfonyl)phenyl-N4-(4-cyanomethoxy-3-methyl)phenyl-5-fluoro-2,4-pyrimidinediamine], the IC50 in assay [1] is 236 nM; in assay [2], 4430 nM. In the same order, the values of `Cc1cc(Nc2nc(Nc3cccc(S(N)(=O)=O)c3)ncc2F)ccc1OCC#N` [Compound I-23, N2-(3-Aminosulfonyl)phenyl-N4-(4-cyanomethoxy-3-methyl)phenyl-5-fluoro-2,4-pyrimidinediamine] are 30.1 nM and 455 nM. `Cc1cc(Nc2nc(Nc3ccc(C)c(S(N)(=O)=O)c3)ncc2F)ccc1OCC#N` [Compound I-24, N2-(3-Aminosulfonyl-4-methyl)phenyl-N4-(4-cyanomethoxy-3-methyl)phenyl-5-fluoro-2,4-pyrimidinediamine]: the IC50 was determined as 54.2 nM in assay [1] and 1040 nM in assay [2]. On to `Cc1cc(Nc2nc(Nc3ccc(S(N)(=O)=O)cc3)ncc2F)cc(C)c1OCC#N` [Compound I-25, N2-(4-Aminosulfonyl)phenyl-N4-(4-cyanomethoxy-3,5-dimethyl)phenyl-5-fluoro-2,4-pyrimidinediamine], for which the IC50 in assay [1] was found to be 55.8 nM. Regarding `Cc1cc(Nc2nc(Nc3cccc(S(N)(=O)=O)c3)ncc2F)cc(C)c1OCC#N` [Compound I-26, N2-(3-Aminosulfonyl)phenyl-N4-(4-cyanomethoxy-3,5-dimethyl)phenyl-5-fluoro-2,4-pyrimidinediamine], the IC50 in assay [1] stood at 37.8 nM; in assay [2] it was 424 nM. In the same order, the values of `Cc1ccc(Nc2ncc(F)c(Nc3cc(C)c(OCC#N)c(C)c3)n2)cc1S(N)(=O)=O` [Compound I-27, N2-(3-Aminosulfonyl-4-methyl)phenyl-N4-(4-cyanomethoxy-3,5-dimethyl)phenyl-5-fluoro-2,4-pyrimidinediamine] are 61.9 nM and 534 nM. For `COc1cc(Nc2ncc(F)c(Nc3ccc(OCC#N)cc3)n2)ccc1S(N)(=O)=O` [Compound I-28, N2-(4-Aminosulfonyl-3-methoxyphenyl)-N4-(4-cyanomethoxy)phenyl-5-fluoro-2,4-pyrimidinediamine], the IC50 in assay [1] is 64.5 nM; in assay [2], 1890 nM. In the same order, the values of `COc1cc(Nc2ncc(F)c(Nc3cc(C)c(OCC#N)c(C)c3)n2)ccc1S(N)(=O)=O` [Compound I-32, N2-(4-Aminosulfonyl-3-methoxy)phenyl-N4-(4-cyanomethoxy-3,5-dimethyl)phenyl-5-fluoro-2,4-pyrimidinediamine] are 161 nM and 1970 nM. Consider `N#CCOc1ccc(Nc2nc(Nc3ccc(F)c(S(N)(=O)=O)c3)ncc2F)cc1` [Compound I-33, N2-(3-Aminosulfonyl-4-fluoro)phenyl-N4-(4-cyanomethoxy)phenyl-5-fluoro-2,4-pyrimidinediamine], for which the IC50 in assay [1] amounted to 96.5 nM; in assay [2], 897 nM. On to `Cc1cc(COc2ccc(Nc3nc(Nc4cc(Cl)c(C)c(S(N)(=O)=O)c4)ncc3F)cc2C)no1` [Compound I-216, N2-(3-Aminosulfonyl-5-chloro-4-methylphenyl)-5-fluoro-N4-[3-methyl-4-(5-methylisoxazol-3-yl)methyleneoxyphenyl]-2,4-pyrimidinediamine], for which the figures for the IC50 in assay [1] and in assay [2] were 205 nM and 1570 nM, respectively. As to `Cc1cc(COc2ccc(Nc3nc(Nc4cc(C)c(F)c(S(N)(=O)=O)c4)ncc3F)cc2)no1` [Compound I-217, N2-(3-Aminosulfonyl-4-fluoro-5-methylphenyl)-5-fluoro-N4-[4-(5-methylisoxazol-3-yl)methyleneoxyphenyl]-2,4-pyrimidinediamine], the 50% inhibitory concentration (IC50) in assay [1] came out at 25 nM; in assay [2], 478 nM. Consider `Cc1cc(COc2ccc(Nc3nc(Nc4cc(C)c(Cl)c(S(N)(=O)=O)c4)ncc3F)cc2)no1` [Compound I-218, N2-(3-Aminosulfonyl-4-chloro-5-methylphenyl)-5-fluoro-N4-[4-(5-methylisoxazol-3-yl)methyleneoxyphenyl]-2,4-pyrimidinediamine], for which the IC50 was found to be 72.6 nM in assay [1] and 434 nM in assay [2]. In the same order, the values of `Cc1cc(COc2ccc(Nc3nc(Nc4ccc(C)c(S(N)(=O)=O)c4)ncc3F)cc2)no1` [Compound I-219, N2-(3-Aminosulfonyl-4-methylphenyl)-5-fluoro-N4-[4-(5-methylisoxazol-3-yl)methyleneoxyphenyl]-2,4-pyrimidinediamine] are 31.6 nM and 588 nM. For `Cc1cc(COc2ccc(Nc3nc(Nc4ccc(C)c(S(N)(=O)=O)c4)ncc3F)cc2Cl)no1` [Compound I-221, N2-(3-Aminosulfonyl-4-methylphenyl)-N4-[3-chloro-4-(5-methylisoxazol-3-yl)methyleneoxyphenyl]-5-fluoro-2,4-pyrimidinediamine], the IC50 was determined as 344 nM in assay [1] and 4440 nM in assay [2]. The matching figures for `Cc1cc(COc2ccc(Nc3nc(Nc4ccc(C)c(S(N)(=O)=O)c4)ncc3F)cc2F)no1` [Compound I-222, N2-(3-Aminosulfonyl-4-methylphenyl)-5-fluoro-N4-[3-fluoro-4-(5-methylisoxazol-3-yl)methyleneoxyphenyl]-2,4-pyrimidinediamine]: 33.1 nM and 840 nM.

In the case of `Cc1cc(COc2ccc(Nc3nc(Nc4cc(Cl)c(C)c(S(N)(=O)=O)c4)ncc3F)cc2F)no1` [Compound I-223, N2-(3-Aminosulfonyl-5-chloro-4-methylphenyl)-5-fluoro-N4-[3-fluoro-4-(5-methylisoxazol-3-yl)methyleneoxyphenyl]-2,4-pyrimidinediamine], the IC50 in assay [1] was 88 nM; in assay [2] it was 1210 nM.

Regarding `Cc1cc(COc2ccc(Nc3nc(Nc4cc(C)c(F)c(S(N)(=O)=O)c4)ncc3F)cc2F)no1` [Compound I-224, N2-(3-Aminosulfonyl-4-fluoro-5-methylphenyl)-5-fluoro-N4-[3-fluoro-4-(5-methylisoxazol-3-yl)methyleneoxyphenyl]-2,4-pyrimidinediamine], the IC50 was 36.1 nM in assay [1] and 494 nM in assay [2]. Take `Cc1noc(COc2ccc(Nc3nc(Nc4ccc(S(N)(=O)=O)cc4)ncc3F)cc2)n1` [Compound I-231, N2-(4-Aminosulfonylphenyl)-5-fluoro-N4-[4-(3-methyl-1,2,4-oxadiazol-5-yl)methyleneoxyphenyl]-2,4-pyrimidinediamine]: the IC50 was 94.7 nM in assay [1] and 8400 nM in assay [2]. Turning to `Cc1cc(COc2ccc(Nc3nc(Nc4ccc(F)c(S(N)(=O)=O)c4)ncc3F)cc2)no1` [Compound I-233, N2-(3-Aminosulfonyl-4-fluorophenyl)-5-fluoro-N4-[4-(5-methylisoxazol-3-yl)methyleneoxyphenyl]-2,4-pyrimidinediamine], the IC50 came out at 148 nM in assay [1] and 1750 nM in assay [2].
